Holding throughout (assay): growth of human tumour cells (NCI), 48 h
In assay [1] the test system is MOLT-4 leukemia.
Assay [2] concerns SK-MEL-2 melanoma.
Assay [3] has as its system A498 renal.
The subject of assay [4] is EKVX NSCLC.
Assay [5] has as its system M14 melanoma.
Assay [6] relates to IGROV1 ovarian.
The subject of assay [7] is SNB-75 CNS.
Assay [8] concerns NCI-H460 lung.
In assay [9] the test system is U251 CNS.
Assay [10] has as its system UACC-257 melanoma.

SMILES strings stand for the structures.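 Results reflect a 48-hour exposure of cells in 96-well plates to compound at five concentrations. GI50: concentration for 50% inhibition of growth. TGI: total growth inhibition.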

Take `NC(CSC1(c2ccc(Cl)cc2)c2ccccc2-c2ccccc21)C(=O)O` (stereo not drawn): the TGI in [1] is 71.5 µM; in assay [2], 41.8 µM; in assay [3], 35 µM; in assay [4], greater than 100 µM; in assay [5], 68.4 µM; in assay [6], 29.4 µM. Moreover, the TGI in [7] is 62.9 µM; in assay [8], 39.5 µM; in assay [9], 29.6 µM; in [10] it was 34.4 µM.

As for `O=C(O)c1c[nH]c2c(ccc3[nH]cc(C(=O)O)c(=O)c32)c1=O`, the TGI in assay [1], in assay [2], in assay [3], in [4], in [5] and in assay [6] was greater than 100 µM throughout. Further, the TGI in [7] is 75 µM; in assay [8], greater than 100 µM; in assay [9], greater than 100 µM; in assay [10], greater than 100 µM.

As for `c1cnc2nc3n(c2c1)CSC3`, the TGI in [1], in [2], in assay [3], in [4], in assay [5] and in assay [6] was greater than 100 µM throughout. The TGI in assay [7], in assay [8], in [9] and in assay [10] was greater than 100 µM each time.

`N/C(=N/N=C/c1cccc(F)c1)NO`: the TGI is greater than 100 µM in assay [1]; greater than 100 µM in assay [2]; greater than 100 µM in assay [3]; greater than 100 µM in assay [4]; 56 µM in assay [5]; greater than 100 µM in [6]. Further, the TGI in assay [7], in assay [8], in assay [9] and in assay [10] was greater than 100 µM throughout.

For the compound `Clc1ccc(Nc2ncnc3c2sc2ncccc23)c(Cl)c1`, the GI50 in assay [1] was 0.0382 µM; in [2], 30.7 µM; in assay [3], 0.0317 µM; in [4], 0.0826 µM; in assay [5], less than 0.01 µM; in assay [6], greater than 100 µM. For the same compound, the GI50 was 0.0689 µM in assay [7], less than 0.01 µM in [8], 0.0152 µM in assay [9] and 0.0557 µM in assay [10]. Besides, the TGI in [1] is greater than 100 µM; in assay [2], greater than 100 µM; in [3], greater than 22.1 µM; in assay [4], greater than 100 µM; in assay [5], 0.038 µM; in assay [6], greater than 100 µM. The TGI in assay [7] is greater than 30.9 µM; in assay [8] it was greater than 100 µM; in assay [9] it was greater than 100 µM; in assay [10], greater than 100 µM.

Consider `C=C(C)[C@@H]1CC[C@]2(C(=O)N3CCN(C)CC3)CC[C@]3(C)[C@H](CC[C@@H]4[C@@]5(C)CC[C@H](O)C(C)(C)[C@@H]5CC[C@]43C)[C@@H]12`, for which the GI50 is 1.64 µM in assay [2]; 1.5 µM in [3]; 1.92 µM in assay [4]; 1.89 µM in [5]; 1.93 µM in [6]; 1.64 µM in [7]. The GI50 in [8] was 2.02 µM; in assay [10], 1.81 µM. In addition, the TGI in assay [2] amounted to 3.14 µM; in assay [3] it was 2.9 µM; in assay [4], 4.12 µM; in assay [5] it was 3.76 µM; in assay [6], 3.71 µM; in [7], 3.27 µM. In addition, the TGI is 4.04 µM in [8] and 3.57 µM in assay [10].

For the compound `O=C1CCCCCCCCCCOC(=O)CCCCCCCCCCO1`, the TGI in [2], in [3], in [4], in [5], in assay [6] and in assay [7] was greater than 100 µM each time. For the same compound, the TGI in [8], in [9] and in [10] was greater than 100 µM in each case.

On to `CCN(CC)CC(O)c1cc(-c2ccc(Cl)cc2)nc2cc(Cl)ccc12` (stereo not drawn), for which the GI50 in assay [1] is 1.68 µM; in assay [2], 1.92 µM; in assay [3], 2.95 µM; in [4], 1.76 µM; in [5] it was 1.83 µM; in assay [6], 0.518 µM. Moreover, the GI50 is 1.69 µM in [7], 1.64 µM in assay [8], 1.75 µM in assay [9] and 1.86 µM in assay [10]. In addition, the TGI was 3.48 µM in assay [1]; 3.63 µM in assay [2]; 10.1 µM in assay [3]; 8.04 µM in assay [4]; 3.44 µM in [5]; 2.47 µM in [6]. Besides, the TGI in [7] worked out at 7.14 µM; in assay [8], 3.17 µM; in assay [9] it was 3.34 µM; in assay [10], 3.61 µM.

For the compound `CSCC(COC(C)=O)(CSC)c1ccncc1`, the TGI in [1], in assay [2], in assay [3], in [4], in [5] and in [6] was greater than 100 µM in each case. The TGI in assay [7], in assay [8], in [9] and in [10] was greater than 100 µM throughout.

Consider `C=CCn1c(=O)c(C(=O)NC(=O)OCC)cn(C2CCCCC2)c1=O`, for which the TGI in assay [1], in assay [2], in assay [3], in assay [4], in assay [5] and in assay [6] was greater than 100 µM throughout. In addition, the TGI in [7], in assay [8], in assay [9] and in [10] was greater than 100 µM each time.

`CCC1OC(=O)CC(O)C(C)C(OC2OC(C)CC(N(C)C)C2O)C(CC=O)CC(C)C(=O)/C=C/C2(C)OC2C1C` (stereo not drawn): the TGI is 43.4 µM in assay [1]; greater than 100 µM in assay [2]; 71.8 µM in assay [3]; 44.8 µM in [4]; greater than 100 µM in assay [5]; 25.4 µM in [6]. In addition, the TGI in assay [7] was 40.8 µM; in [8] it was greater than 100 µM; in assay [9], 30.8 µM; in assay [10], greater than 100 µM.

In the case of `Oc1[nH]c2ccccc2c1/C=c1/ccc2c(c1)N=C(c1cc(F)cc(F)c1)N=2`, the GI50 in assay [1] was 3.53 µM; in [2] it was 5.71 µM; in assay [3] it was 1.53 µM; in [4], 2.63 µM; in assay [5], 2.7 µM; in [6], 10.5 µM. For the same compound, the GI50 was 3.22 µM in assay [7], 7.04 µM in [8], 3.89 µM in assay [9] and 10.6 µM in assay [10]. Besides, the TGI is 14.6 µM in [1]; 20.8 µM in assay [2]; 17 µM in assay [3]; 17.5 µM in assay [4]; 13.6 µM in assay [5]; 28.1 µM in [6]. For the same compound, the TGI in [7] is 17.7 µM; in assay [8], 22.8 µM; in assay [9], 17.6 µM; in [10], 26.4 µM.

For the compound `Cc1cc(Cl)ccc1Nc1nc2c(s1)C(=O)c1ccccc1C2=O`, the TGI was greater than 25.4 µM in [1]; 22.7 µM in [2]; 42 µM in assay [3]; 21.4 µM in assay [4]; 1.99 µM in assay [5]; 11.9 µM in assay [6]. The TGI amounted to 22 µM in assay [7], 9.5 µM in [8], 12.7 µM in assay [9] and 5.64 µM in assay [10].

As for `Cc1cc2nc3c4cc([N+](=O)[O-])ccc4n(CCN(C)C)c3nc2cc1C`, the GI50 in assay [1] was 0.373 µM; in [2], 1 µM; in assay [3], 0.452 µM; in assay [4], 0.579 µM; in assay [5], 0.467 µM; in assay [6], 0.385 µM. In addition, the GI50 was 0.842 µM in [7], 0.352 µM in assay [8], 0.48 µM in assay [9] and 0.725 µM in assay [10]. In addition, the TGI in assay [1] came to 8.68 µM; in assay [2] it was 3.03 µM; in [3], 1.74 µM; in assay [4], 5.49 µM; in assay [5], 1.99 µM; in assay [6], 3.23 µM. Besides, the TGI in [7] is 2.7 µM; in assay [8], 1.75 µM; in assay [9], 11.9 µM; in [10], 4.21 µM.

With `Cn1cc(-c2ccc3nnc(C(F)(F)c4ccc5ncccc5c4)n3n2)cn1`, the GI50 was 52.5 µM in assay [1]; 50.6 µM in [2]; 24.8 µM in assay [3]; greater than 83.3 µM in assay [4]; greater than 100 µM in assay [5]; 53.8 µM in [6]. Also, the GI50 was 22.2 µM in assay [7], 59.6 µM in assay [8], 58.4 µM in assay [9] and greater than 100 µM in assay [10]. Also, the TGI in assay [1], in assay [2], in [3], in assay [4], in [5] and in [6] was greater than 100 µM throughout. The TGI in [7] was greater than 92.4 µM; in assay [8] it was greater than 100 µM; in assay [9] it was greater than 100 µM; in assay [10] it was greater than 100 µM.

Consider `[Au+].c1c[n-]cn1.c1ccc([PH+](c2ccccc2)c2ccccc2)cc1`, for which the GI50 in assay [1] was 2.07 µM; in assay [2], 2.53 µM; in assay [3], 17.4 µM; in [4], 11 µM; in [5], 2.34 µM; in assay [6], 2.02 µM. For the same compound, the GI50 in [7] is 15.2 µM; in assay [8], 15.3 µM; in assay [9], 3.77 µM; in [10], 5.04 µM. Besides, the TGI in assay [1] worked out at 5.15 µM; in [2], 8.06 µM; in assay [3], 34.9 µM; in [4], 38.2 µM; in [5] it was 6.73 µM; in [6], 13.7 µM. In addition, the TGI in [7] was found to be 33.7 µM; in assay [8] it was 59.9 µM; in assay [9], 26.2 µM; in assay [10], 15.8 µM.

As to `COc1ccc(Nc2ncccc2C(=O)NCc2cn(Cc3cccc(Oc4ccccc4)c3)nn2)c(OC)c1`, the GI50 in assay [1] was 4.02 µM; in assay [2] it was 5.03 µM; in assay [3] it was 1.33 µM; in assay [4] it was 9.61 µM; in assay [5], 1.37 µM; in assay [6], 5.18 µM. For the same compound, the GI50 in assay [7] is 3.64 µM; in assay [8] it was 3.19 µM; in assay [9], 3.19 µM; in assay [10], 13.4 µM. For the same compound, the TGI in assay [1] is greater than 100 µM; in assay [2] it was greater than 100 µM; in assay [3], 13 µM; in [4] it was greater than 100 µM; in assay [5], greater than 100 µM; in [6] it was greater than 100 µM. Further, the TGI in [7] was greater than 84.5 µM; in assay [8], greater than 100 µM; in assay [9], greater than 100 µM; in assay [10], greater than 100 µM.

Consider `CC/C(=C(/CC)c1ccc(O)cc1)c1ccc(O)cc1`, for which the GI50 in [1] is 5.29 µM; in assay [2], 9.23 µM; in assay [3], 12.4 µM; in assay [4], 5.66 µM; in [5], 4.57 µM; in assay [6] it was 12.4 µM. Also, the GI50 in assay [7] is 2.2 µM; in [8], 4.05 µM; in assay [9] it was 4.91 µM; in assay [10], 7.04 µM. The TGI amounted to 66.4 µM in assay [1]; 26.7 µM in assay [2]; 25.2 µM in [3]; 34.7 µM in assay [4]; 15.7 µM in [5]; 52.3 µM in assay [6]. Also, the TGI is 6.48 µM in assay [7], 15.2 µM in assay [8], 18.2 µM in assay [9] and 22.7 µM in [10].

`CNC(=O)c1cc(Oc2ccc3nc(NC(=O)Nc4cc(C(F)(F)F)cc(C(F)(F)F)c4)sc3c2)ccn1`: the GI50 is 1.05 µM in assay [2]; 1.02 µM in assay [3]; 1.28 µM in [4]; 1.5 µM in assay [5]; 1.25 µM in assay [6]; 1 µM in assay [7]. Also, the GI50 in assay [8] was 1.23 µM; in [9], 1.02 µM; in [10] it was 1.15 µM. Also, the TGI was 3.13 µM in [2]; 2.46 µM in assay [3]; 4.56 µM in assay [4]; 3.22 µM in assay [5]; 3.16 µM in assay [6]; 2.7 µM in assay [7]. The results for the TGI in assay [8], in assay [9] and in [10] were 2.85 µM, 2.2 µM and 2.62 µM, respectively.
